From patent publication US10030047B2 (Hoffmann-La Roche Inc., priority 2015, dated 2018) come the findings set out here.

In brackets after ≈: the same amount, converted by molar mass.

In the assay the test system is A. baumannii strain ATCC19606. In words: Minimum inhibitory concentration (MIC) determination, microbroth dilution (CLSI). Particulars: Acinetobacter baumannii; A. baumannii ATCC19606; CAMHB; read after 20 hours; >=80% growth inhibition; read-out: ATCC19606 MIC. It is filed as cell-based. The gist of the method: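 After 20 h at 35±2 °C, MIC taken visually and by OD 600 nm as the lowest concentration giving ≥80% growth inhibition. Bacteria (~5×10^5 CFU/ml) were tested per CLSI microbroth dilution against twofold serial compound dilutions in cation-adjusted Mueller Hinton broth.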
(Dilution methods test growth across graded concentrations, often in twofold steps.)
As usually defined, the MIC is the smallest concentration in the dilution series that meets the test's criterion for growth inhibition. For the compound `CN1C(=O)[C@H](CCCCN)NC(=O)[C@H](CCCN)NCc2cccnc2Sc2c(Cl)cncc2CNC(=O)[C@@H]1Cc1c[nH]c2ccccc12` [Example 157, (7S,10S,13S)— 13-((1H-Indol-3-yl)methyl)-10-(4-aminobutyl)-7-(3-aminopropyl)-20-chloro-12-methyl-6,7,9,10,12,13,15,16-octahydrodipyrido[2,3-b:3′,4′-p][1,5,8,11,14]thiatetraazacycloheptadecine-8,11,14(5H)-trione], the minimal inhibitory concentration (MIC) stood at 16 mg/L (≈ 22.7 µM).

Consider `CN1C(=O)[C@H](CCCN)NC(=O)[C@H](CCC(N)=O)NCc2cccnc2Sc2c(Cl)cc(Cl)cc2CNC(=O)[C@@H]1Cc1c[nH]c2ccccc12` [Example 160, 3-[(11S,14S,17S)-14-(3-Amino-propyl)-23,25-dichloro-17-(1H-indol-3-ylmethyl)-16-methyl-12,15,18-trioxo-2-thia-4,10,13,16,19-pentaaza-tricyclo[19.4.0.0*3,8*]pentacosa-1(25),3(8),4,6,21,23-hexaen-11-yl]-propionamide], for which the MIC came to 4 mg/L (≈ 5.41 µM).

As for `CN1C(=O)[C@H](CCCCN)NC(=O)[C@H](CCCN)NCc2cccnc2Sc2c(Cl)cc(-c3ccnc(N4CCOCC4)c3)cc2CNC(=O)[C@@H]1Cc1c[nH]c2ccccc12` [Example 162, (11S,14S,17S)-14-(4-Amino-butyl)-11-(3-amino-propyl)-25-chloro-17-(1H-indol-3-ylmethyl)-16-methyl-23-(2-morpholin-4-yl-pyridin-4-yl)-2-thia-4,10,13,16,19-pentaaza-tricyclo[19.4.0.0*3,8*]pentacosa-1(25),3(8),4,6,21,23-hexaene-12,15,18-trione], the MIC worked out at 0.5 mg/L (≈ 0.576 µM). Consider `CN1C(=O)[C@H](CCCCN)NC(=O)[C@H](CCC(N)=O)NCc2cccnc2Sc2c(Cl)cc(-c3ccccn3)cc2CNC(=O)[C@@H]1Cc1c[nH]c2ccccc12` [Example 163, 3-[(11S,14S,17S)-14-(4-Amino-butyl)-25-chloro-17-(1H-indol-3-ylmethyl)-16-methyl-12,15,18-trioxo-23-pyridin-2-yl-2-thia-4,10,13,16,19-pentaaza-tricyclo[19.4.0.0*3,8*]pentacosa-1(25),3(8),4,6,21,23-hexaen-1-yl]-propionamide], for which the minimum inhibitory concentration (MIC) is 4 mg/L (≈ 5.02 µM). For `CN1C(=O)[C@H](CCCCN)NC(=O)[C@H](CCCN)NCc2cccnc2Sc2c(Cl)cc(-c3ccnc(Cl)c3)cc2CNC(=O)[C@@H]1Cc1c[nH]c2ccccc12` [Example 164, (11S,14S,17S)-14-(4-Amino-butyl)-11-(3-amino-propyl)-25-chloro-23-(2-chloro-pyridin-4-yl)-17-(1H-indol-3-ylmethyl)-16-methyl-2-thia-4,10,13,16,19-pentaaza-tricyclo[19.4.0.0*3,8*]pentacosa-1(21),3,5,7,22,24-hexaene-12,15,18-trione] the value was 0.25 mg/L (≈ 0.306 µM); for `CN1C(=O)[C@H](CCCCN)NC(=O)[C@H](CCCN)NCc2cccnc2Sc2c(Cl)cc(-c3ccc(O)nc3)cc2CNC(=O)[C@@H]1Cc1c[nH]c2ccccc12` [Example 165, (11S,14S,17S)-14-(4-Amino-butyl)-11-(3-amino-propyl)-25-chloro-23-(6-hydroxy-pyridin-3-yl)-17-(1H-indol-3-ylmethyl)-16-methyl-2-thia-4,10,13,16,19-pentaaza-tricyclo[19.4.0.0*3,8*]pentacosa-1(25),3(8),4,6,21,23-hexaene-12,15,18-trione], 4 mg/L (≈ 5.01 µM); for `CN(C)c1ccc(-c2cc(Cl)c3c(c2)CNC(=O)[C@H](Cc2c[nH]c4ccccc24)N(C)C(=O)[C@H](CCCCN)NC(=O)[C@H](CCCN)NCc2cccnc2S3)cn1` [Example 166, (11S,14S,17S)-14-(4-Amino-butyl)-11-(3-amino-propyl)-25-chloro-23-(6-dimethylamino-pyridin-3-yl)-17-(1H-indol-3-ylmethyl)-16-methyl-2-thia-4,10,13,16,19-pentaaza-tricyclo[19.4.0.0*3,8*]pentacosa-1(25),3(8),4,6,21,23-hexaene-12,15,18-trione], 0.5 mg/L (≈ 0.606 µM). As to `Cc1cc(-c2cc3c(cn2)Sc2ncccc2CN[C@@H](CCCN)C(=O)N[C@@H](CCCCN)C(=O)N(C)[C@@H](Cc2c[nH]c4ccccc24)C(=O)NC3)ccn1` [Example 167, (7S,10S,13S)-13-((1H-Indol-3-yl)methyl)-10-(4-aminobutyl)-7-(3-aminopropyl)-12-methyl-18-(2-methylpyridin-4-yl)-6,7,9,12,13,15,16-octahydrodipyrido[2,3-b:4′,3′-p][1,5,8,11,14]thiatetraazacycloheptadecine-8,11,14(5H)-trione], the minimum inhibitory concentration (MIC) turned out to be 32 mg/L (≈ 41.9 µM). For `Cc1noc(C)c1-c1cc(Cl)c2c(c1)CNC(=O)[C@H](Cc1c[nH]c3ccccc13)N(C)C(=O)[C@H](CCCCN)NC(=O)[C@H](CCC(N)=O)NCc1cccnc1S2` [Example 169, 3-[(11S,14S,17S)-14-(4-Amino-butyl)-25-chloro-23-(3,5-dimethyl-isoxazol-4-yl)-17-(1H-indol-3-ylmethyl)-16-methyl-12,15,18-trioxo-2-thia-4,10,13,16,19-pentaaza-tricyclo[19.4.0.0*3,8*]pentacosa-1(25),3(8),4,6,21,23-hexaen-11-yl]-propionamide] the value was 4 mg/L (≈ 4.91 µM); for `Cc1cc(-c2cc(Cl)c3c(c2)CNC(=O)[C@H](Cc2c(C)[nH]c4ccccc24)N(C)C(=O)[C@H](CCCCN)NC(=O)[C@H](CCCN)NCc2cccnc2S3)ccn1` [Example 170, (11S,14S,17S)-14-(4-Amino-butyl)-11-(3-amino-propyl)-25-chloro-16-methyl-17-(2-methyl-1H-indol-3-ylmethyl)-23-(2-methyl-pyridin-4-yl)-2-thia-4,10,13,16,19-pentaaza-tricyclo[19.4.0.0*3,8*]pentacosa-1(25),3(8),4,6,21,23-hexaene-12,15,18-trione], 0.5 mg/L (≈ 0.617 µM); for `COc1cc(-c2cc(Cl)c3c(c2)CNC(=O)[C@H](Cc2c(C)[nH]c4ccccc24)N(C)C(=O)[C@H](CCCCN)NC(=O)[C@H](CCCN)NCc2cccnc2S3)ccn1` [Example 171, (11S,14S,17S)-14-(4-Amino-butyl)-11-(3-amino-propyl)-25-chloro-23-(2-methoxy-pyridin-4-yl)-16-methyl-17-(2-methyl-1H-indol-3-ylmethyl)-2-thia-4,10,13,16,19-pentaaza-tricyclo[19.4.0.0*3,8*]pentacosa-1(25),3(8),4,6,21,23-hexaene-12,15,18-trione], 0.5 mg/L (≈ 0.605 µM).

As to `CN1C(=O)[C@H](CCCCN)NC(=O)[C@H](CCCN)NCc2cccnc2Sc2c(Cl)cc(-c3ccc(S(C)(=O)=O)cc3)cc2CNC(=O)[C@@H]1Cc1c[nH]c2ccccc12` [Example 172, (11S,14S,17S)-14-(4-Amino-butyl)-11-(3-amino-propyl)-25-chloro-17-(1H-indol-3-ylmethyl)-23-(4-methanesulfonyl-phenyl)-16-methyl-2-thia-4,10,13,16,19-pentaaza-tricyclo[19.4.0.0*3,8*]pentacosa-1(25),3(8),4,6,21,23-hexaene-12,15,18-trione], the MIC is 0.5 mg/L (≈ 0.582 µM). On to `CN1C(=O)[C@H](CCCCN)NC(=O)[C@H](CCCN)NCc2cccnc2Sc2c(Cl)cc(-c3cncc(S(C)(=O)=O)c3)cc2CNC(=O)[C@@H]1Cc1c[nH]c2ccccc12` [Example 173, (11S,14S,17S)-14-(4-Amino-butyl)-11-(3-amino-propyl)-25-chloro-17-(1H-indol-3-ylmethyl)-23-(5-methanesulfonyl-pyridin-3-yl)-16-methyl-2-thia-4,10,13,16,19-pentaaza-tricyclo[19.4.0.0*3,8*]pentacosa-1(25),3(8),4,6,21,23-hexaene-12,15,18-trione], for which the minimum inhibitory concentration (MIC) was found to be 2 mg/L (≈ 2.32 µM). On to `CN1C(=O)[C@H](CCCCN)NC(=O)[C@H](CCCN)NCc2cccnc2Sc2c(Cl)cc(N3CCC(N)C3)cc2CNC(=O)[C@@H]1Cc1c[nH]c2ccccc12` (stereo partly drawn) [Example 174, (11S,14S,17S)-14-(4-Amino-butyl)-11-(3-amino-propyl)-23-(3-amino-pyrrolidin-1-yl)-25-chloro-17-(1H-indol-3-ylmethyl)-16-methyl-2-thia-4,10,13,16,19-pentaaza-tricyclo[19.4.0.0*3,8*]pentacosa-1(25),3(8),4,6,21,23-hexaene-12,15,18-trione], for which the minimal inhibitory concentration (MIC) came out at 16 mg/L (≈ 20.3 µM). On to `Cc1n[nH]c(C)c1-c1cc(Cl)c2c(c1)CNC(=O)[C@H](Cc1c[nH]c3ccccc13)N(C)C(=O)[C@H](CCCCN)NC(=O)[C@H](CCCN)NCc1cccnc1S2` [Example 175, (11S,14S,17S)-14-(4-Amino-butyl)-11-(3-amino-propyl)-25-chloro-23-(3,5-dimethyl-1H-pyrazol-4-yl)-17-(1H-indol-3-ylmethyl)-16-methyl-2-thia-4,10,13,16,19-pentaaza-tricyclo[19.4.0.0*3,8*]pentacosa-1(25),3(8),4,6,21,23-hexaene-12,15,18-trione], for which the MIC is 2 mg/L (≈ 2.5 µM).

Take `CN1C(=O)[C@H](CCCCN)NC(=O)[C@H](CCCN)NCc2cccnc2Sc2c(Cl)cc(-c3ccnc(F)c3)cc2CNC(=O)[C@@H]1Cc1c[nH]c2ccccc12` [Example 177, (11S,14S,17S)-14-(4-Amino-butyl)-11-(3-amino-propyl)-25-chloro-23-(2-fluoro-pyridin-4-yl)-17-(1H-indol-3-ylmethyl)-16-methyl-2-thia-4,10,13,16,19-pentaaza-tricyclo[19.4.0.0*3,8*]pentacosa-1(25),3(8),4,6,21,23-hexaene-12,15,18-trione]: the MIC was found to be 1 mg/L (≈ 1.25 µM). As to `Cc1ccc(-c2cc3c(cn2)Sc2ncccc2CN[C@@H](CCCN)C(=O)N[C@@H](CCCCN)C(=O)N(C)[C@@H](Cc2c[nH]c4ccccc24)C(=O)NC3)cn1` [Example 178, (7S,10S,13S)-13-((1H-Indol-3-yl)methyl)-10-(4-aminobutyl)-7-(3-aminopropyl)-12-methyl-18-(6-methylpyridin-3-yl)-6,7,9,10,12,13,15,16-octahydrodipyrido[2,3-b:4′,3′-p][1,5,8,11,14]thiatetraazacycloheptadecine-8,11,14(5H)-trione], the minimum inhibitory concentration (MIC) was found to be 32 mg/L (≈ 41.9 µM). The result for `CN1C(=O)[C@H](CCCCN)NC(=O)[C@H](CCCN)NCc2ccccc2Sc2ncc(Cl)cc2CNC(=O)[C@@H]1Cc1c[nH]c2ccccc12` [Example 179] reads 32 mg/L (≈ 45.4 µM).
